Literature values, collected in patent EP1693447A1, “Procedure for the preparation of superoxide dismutase” (Gnosis S.p.A., priority 2005, dated 2006).

Tested on: superoxide dismutase
Details: SOD currently on the market

## Bovine liver - PEG superoxide dismutase - freeze-dried powder: type of SOD currently on the market, PEG superoxide dismutase
  superoxide dismutase units/mg of protein: Bovine liver - PEG superoxide dismutase - freeze-dried powder ≥ 1,350 units/mg of protein
